Source: ChEMBL document CHEMBL1131692, “A study of novel antiallergic agents with eosinophilic infiltration inhibiting action” (Bioorg Med Chem Lett, 1999)

Species on record: Cavia porcellus
Assay: Evaluated for antihistamine action using guinea pig ilea
Assay type: functional
Conditions: read-out: pA2 (converted)

Structure (SMILES)	Kb
Cc1cc(OCCCCCN2CCN(C(c3ccccc3)c3ccccc3)CC2)c(C)c(C)c1O	151 nM
Cc1cc(OCCCCCCCCCCN2CCN(C(c3ccccc3)c3ccccc3)CC2)c(C)c(C)c1O	407 nM
Cc1cc(OCCCN2CCN(C(c3ccccc3)c3ccccc3)CC2)c(C)c(C)c1O	74.1 nM
O=c1[nH]c2ccccc2n1CCCN1CCN(C(c2ccccc2)c2ccccc2)CC1 [OXATOMIDE]	45.7 nM
Cc1cc(OCCN2CCN(C(c3ccccc3)c3ccccc3)CC2)c(C)c(C)c1O	117 nM
Cc1cc(OCCCCN2CCN(C(c3ccccc3)c3ccccc3)CC2)c(C)c(C)c1O	77.6 nM
Cc1cc(OCCCCCCN2CCN(C(c3ccccc3)c3ccccc3)CC2)c(C)c(C)c1O	155 nM
Cc1cc(OCCCCCCCCN2CCN(C(c3ccccc3)c3ccccc3)CC2)c(C)c(C)c1O	275 nM
